We go through two compounds from US20200405719A1, “CANCER TREATMENT USING COMBINATION OF NEUTROPHIL MODULATOR WITH MODULATOR OF IMMUNE CHECKPOINT” (APOLLOMICS INC., priority 2018, published 2020).

One data set relates to MC38 tumor cells. Put plainly: MC-38 syngeneic colon cancer model, tumor growth and tolerability. It is filed as in vivo. As to the method:
The inventors undertook a combination study of APL-101 and an anti-PD-1 antibody to evaluate the safety and efficacy of the combination. In the MC-38 colon cancer model in syngeneic mice, four groups, five animals per group received either vehicle (water at 20 mg/kg orally, once a day), APL-101 (10 mg/kg orally, once a day), anti-PD-1 (10 mg/kg intraperitoneal injection, twice a week), or APL-101 plus anti-PD-1. In the vehicle group as well as the APL-101 group, animals were dosed daily on Days 1-15 whereas in the single agent anti-PD-1 group, doses were administered on Days 1, 4, 8, 11, and 15. In the combination arm of APL-101 and anti-PD-1, APL-101 was administered on Days 5-15 (4-day delay) while the anti-PD-1 was dosed on Days 1, 4, 8, 11, and 15.
(§1) Animals: female C57BL/6 mice, age 6-8 weeks and of body weight 18-20 g, were provided by Shanghai Lingchang Bio-Technology Co. Ltd.
APL-101 were provided by CBT pharmaceuticals (now Apollomics, Inc.). Anti-PD 1 antibodies were supplied by BioXcell.
Cell culture: The MC38 tumor cells were thawed and maintained in vitro as a monolayer culture in DMEM medium supplemented with 10% heat inactivated fetal bovine serum at 37° C. in an atmosphere of 5% CO2 in air. […] The cells growing in an exponential growth phase were harvested and counted for tumor inoculation. […]
Group assignment: Before grouping and treatment, all animals were weighed and the tumor volumes were measured using a caliper. […]
Observation and data collection: After tumor cells inoculation, the animals were checked daily for morbidity and mortality. During routine monitoring, the animals were checked for any effects of tumor growth and treatments on normal behavior such as mobility, visual estimation of food and water consumption, body weight gain/loss (body weights were measured twice per week after randomization), eye/hair matting and any other abnormal effect. Death and observed clinical signs were recorded in the comment of datasheet for each animal in detail. […] (Tumor weight was measured at the end of study). […]

The subject of a further data set is H22 tumor cells. Put plainly: H22 syngeneic liver cancer model, tumor growth and tolerability. Format: in vivo. As to the method:
The inventors undertook a combination study of APL-101 and an anti-PD-1 antibody to evaluate the safety and efficacy of the combination. In the H22 liver cancer model in syngeneic mice, four groups, ten animals per group received either vehicle (PVP K30 at 20 mg/kg orally, once a day for three weeks), APL-101 (10 mg/kg orally, once a day for three weeks), anti-PD-1 (10 mg/kg intraperitoneal injection, twice a week for three weeks), or APL-101 plus anti-PD-1.
as §1
APL-101 were provided by CBT pharmaceuticals (now Apollomics, Inc.). […]
Cell culture: The H22 tumor cell line were maintained in vitro in RPMI-1640 medium supplemented with 10% fetal bovine serum at 37° C. in an atmosphere of 5% CO2 in air. […] The cells growing in an exponential growth phase were harvested and counted for tumor inoculation. […]
Observation and data collection: After tumor cells inoculation, the animals were checked daily for morbidity and mortality. During routine monitoring, the animals were checked for any effects of tumor growth and treatments on behavior such as mobility, food and water consumption, body weight gain/loss (body weights were measured twice weekly after randomization), eye/hair matting and any other abnormalities. […] (Tumor weight were measured at the end of study). […]

For another data set, the system named is RENCA tumor cells. Put plainly: Syngeneic Renca kidney cancer model, tumor growth and tolerability. It is filed as in vivo.
Excerpt: The inventors undertook a combination study of APL-101 and an anti-PD-1 antibody to evaluate the safety and efficacy of the combination. […]
as §1
APL-101 were provided by CBT pharmaceuticals (Apollomics, Inc.). Anti-PD 1 antibodies were supplied by BioXcell. PVP K30 were supplied by Fluka Analytical.
Cell culture: The Renca tumor cell line was maintained in vitro in DMEM medium supplemented with 10% fetal bovine serum at 37° C. in an atmosphere of 5% CO2 in air. The tumor cells were routinely subcultured twice weekly. The cells growing in an exponential growth phase were harvested and counted for tumor inoculation. […]
Observation and data collection: After tumor cells inoculation, the animals were checked daily for morbidity and mortality. During routine monitoring, the animals were checked for any effects of tumor growth and treatments on behavior such as mobility, food and water consumption, body weight gain/loss (body weights were measured twice weekly after randomization), eye/hair matting and any other abnormalities. Mortality and observed clinical signs were recorded for individual animals in detail. […] (Tumor weight were measured at the end of study). […]

The conditions of data set [1]: 150 mg every 12 hours; 300 mg total daily dose; cited from earlier work.
The conditions of data set [2]: 3 mg/kg IV on Day 1 and Day 15 of 28-day cycle; relapsed and refractory solid tumor subjects; cited from earlier work.

Where two headings read alike, the source gives them in different places.

With `Cn1cc2cc(C(F)(F)c3nnc4ccc(-c5cnn(C6CC6)c5)nn34)c(F)cc2n1` [APL-101], the “Mean percent tumor growth” value in the data set with MC38 tumor cells (MC 38 syngeneic model, APL-101 10 mg/kg qd, anti-PD-1 Ab 10 mg/kg biw) was found to be 35.61%; in the data set with H22 tumor cells (H22 syngeneic liver cancer model, APL-101 10 mg/kg QD x3 weeks, anti-PD-1 IP 10 mg/kg BIW x3 weeks), 108.73%; in the data set on RENCA tumor cells (syngeneic Renca kidney cancer model, APL-101 10 mg/kg QD x3 weeks, anti-PD-1 IP 10 mg/kg BIW x3 weeks), 77%. Further, the “body weight of treated mice” value in the data set on MC38 tumor cells (MC-38 model, FIG. 1C, alone or in combination) is listed as “did not affect the body weight”; in the data set with H22 tumor cells (H-22 model, FIG. 2C, alone or in combination) it was “did not affect the body weight”; with RENCA tumor cells (RENCA model, FIG. 3C, alone or in combination), “did not affect the body weight”. For the same compound, the “mean percent tumor growth inhibition” value in the data set on MC38 tumor cells (MC-38 syngeneic mice, APL-101 PO 10 mg/kg QD, anti-PD-1 IP 10 mg/kg BIW, combination x2 weeks, single agents x3 weeks) was determined as 33.6%. The “dose deemed safe by Safety Review Committee” value in data set [1] is “safe”.

With “APL-501: anti-PD-1 antibody, previously named CBT-501, see WO2016/014688”, the “dose deemed safe by Safety Review Committee” value in data set [2] is on record as “safe”.
